The source of these data is patent publication US8680012B2, “4-phenyl-pyrane-3,5-diones,4-phenyl-thiopyrane-3,6-diones and cyclohexanetriones as novel herbicides” (Syngenta Crop Protection LLC, priority 2006, dated 2014).

Data set [1] concerns Alopecurus myosuroides (ALOMY). The experiment in a line: Example A pre-emergence herbicidal activity, glasshouse pot test. Type of data set: in vivo. The note with it: 480 h, evaluated 20 days after spraying, read-out: Pre-emergence activity ALOMY (100=total damage to plant; 0=no damage to plant); for pest or weed control at 250 g/ha: rate 250 g/ha; for pest or weed control at 500 g/ha: rate 500 g/ha. In short, it runs like this: (§1)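 Spray of formulated compound 1 day after sowing (pre-emergence) or onto seedlings 10 days after sowing (post-emergence); greenhouse growth under optimum conditions; evaluation at 20 days (pre) or 15 days (post), 0-100 damage.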

Data set [2] deals with Lolium perenne (LOLPE). The data set is described as above. Conditions: 480 h, evaluated 20 days after spraying, read-out: Pre-emergence activity LOLPE (100=total damage to plant; 0=no damage to plant); for pest or weed control at 250 g/ha: rate 250 g/ha; for pest or weed control at 500 g/ha: rate 500 g/ha. Type of data set: in vivo. In short, it runs like this:
as §1

The subject of data set [3] is Echinochloa crus-galli (ECHCG). The data set is described as above. In kind it is in vivo. Conditions: 480 h, evaluated 20 days after spraying, read-out: Pre-emergence activity ECHCG (100=total damage to plant; 0=no damage to plant); for pest or weed control at 250 g/ha: rate 250 g/ha; for pest or weed control at 500 g/ha: rate 500 g/ha. In short, it runs like this: as §1

Data set [4] concerns Setaria faberi (SETFA). The description is as above. Type of data set: in vivo. The note with it: 480 h, evaluated 20 days after spraying, read-out: Pre-emergence activity SETFA (100=total damage to plant; 0=no damage to plant); for pest or weed control at 250 g/ha: rate 250 g/ha; for pest or weed control at 500 g/ha: rate 500 g/ha. An outline of the steps:
as §1

Data set [5] deals with Avena fatua (AVEFA). The description is as above. In kind it is in vivo. The note with it: 480 h, evaluated 20 days after spraying, read-out: Pre-emergence activity AVEFA (100=total damage to plant; 0=no damage to plant); for pest or weed control at 250 g/ha: rate 250 g/ha; for pest or weed control at 500 g/ha: rate 500 g/ha. In short, it runs like this: as §1
For data set [6], the system named is Digitaria sanguinalis (DIGSA). The description is as above. In kind it is in vivo. Conditions: 480 h, evaluated 20 days after spraying, read-out: Pre-emergence activity DIGSA (100=total damage to plant; 0=no damage to plant); for pest or weed control at 250 g/ha: rate 250 g/ha; for pest or weed control at 500 g/ha: rate 500 g/ha. An outline of the steps:
as §1

Data set [7] relates to Alopecurus myosuroides (ALOMY). Put plainly: Example A post-emergence herbicidal activity, glasshouse pot test. In kind it is in vivo. The note with it: 360 h, rate 125 g/ha, evaluated 15 days after spraying, read-out: Post-emergence activity ALOMY (100=total damage to plant; 0=no damage to plant). An outline of the steps: as §1
In data set [8] the test system is Lolium perenne (LOLPE). The description is as above. Type of data set: in vivo. Conditions: 360 h, rate 125 g/ha, evaluated 15 days after spraying, read-out: Post-emergence activity LOLPE (100=total damage to plant; 0=no damage to plant). An outline of the steps: as §1
Data set [9] relates to Echinochloa crus-galli (ECHCG). The description is as above. Type of data set: in vivo. The note with it: 360 h, rate 125 g/ha, evaluated 15 days after spraying, read-out: Post-emergence activity ECHCG (100=total damage to plant; 0=no damage to plant). An outline of the steps: as §1
Data set [10] has as its system Setaria faberi (SETFA). The data set is described as above. Type of data set: in vivo. Conditions: 360 h, rate 125 g/ha, evaluated 15 days after spraying, read-out: Post-emergence activity SETFA (100=total damage to plant; 0=no damage to plant). An outline of the steps: as §1
The subject of data set [11] is Avena fatua (AVEFA). The description is as above. The note with it: 360 h, rate 125 g/ha, evaluated 15 days after spraying, read-out: Post-emergence activity AVEFA (100=total damage to plant; 0=no damage to plant). Type of data set: in vivo. In short, it runs like this:
as §1

For data set [12], the system named is Digitaria sanguinalis (DIGSA). The data set is described as above. Type of data set: in vivo. Conditions: 360 h, rate 125 g/ha, evaluated 15 days after spraying, read-out: Post-emergence activity DIGSA (100=total damage to plant; 0=no damage to plant). An outline of the steps:
as §1

For `Cc1cc(-c2ccc(C)c(C3=C(O)C(C)(C)OC(C)(C)C3=O)c2)ccc1Cl` [Compound A-53], the pest or weed control at 250 g/ha turned out to be 10% in data set [1]; 0% in the data set on Lolium perenne (LOLPE) [2]; 10% in data set [3]; 10% with Setaria faberi (SETFA) [4]; 0% in the data set with Avena fatua (AVEFA) [5]; 60% in data set [6]. Besides, the pest or weed control at 125 g/ha came out at 30% in data set [7]; 10% in the data set with Lolium perenne (LOLPE) [8]; 90% in data set [9]; 0% in the data set on Setaria faberi (SETFA) [10]; 10% in the data set on Avena fatua (AVEFA) [11]; 50% in [12].
Consider `CCc1ccc(-c2ccc(Cl)c(C)c2)cc1C1=C(O)C(C)(C)OC(C)(C)C1=O` [Compound A-44], for which the pest or weed control at 250 g/ha amounted to 60% in data set [1]; 80% in the data set on Lolium perenne (LOLPE) [2]; 70% in data set [3]; 50% in the data set with Setaria faberi (SETFA) [4]; 20% in the data set on Avena fatua (AVEFA) [5]; 100% in data set [6]. The pest or weed control at 125 g/ha came out at 40% in data set [7]; 60% in the data set on Lolium perenne (LOLPE) [8]; 100% in data set [9]; 30% in the data set on Setaria faberi (SETFA) [10]; 60% in the data set with Avena fatua (AVEFA) [11]; 70% in [12].
As to `Cc1ccc(-c2ccc(Cl)c(C(F)(F)F)c2)cc1C1=C(O)C(C)(C)OC(C)(C)C1=O` [Compound A-52], the pest or weed control at 250 g/ha came to 0% in data set [1]; 10% with Lolium perenne (LOLPE) [2]; 70% in [3]; 80% in the data set with Setaria faberi (SETFA) [4]; 0% in the data set on Avena fatua (AVEFA) [5]; 100% in data set [6]. Also, the pest or weed control at 125 g/ha worked out at 90% in data set [7]; 30% in the data set on Lolium perenne (LOLPE) [8]; 90% in data set [9]; 60% with Setaria faberi (SETFA) [10]; 70% in the data set on Avena fatua (AVEFA) [11]; 70% in data set [12].
On to `CCc1ccc(-c2ccc(Cl)cc2)cc1C1=C(O)C(C)(C)SC(C)(C)C1=O` [Compound C-1], for which the pest or weed control at 500 g/ha in data set [1] came out at 20%; in the data set on Lolium perenne (LOLPE) [2], 30%; in data set [3] it was 50%; with Setaria faberi (SETFA) [4], 30%; in the data set with Avena fatua (AVEFA) [5] it was 20%; in data set [6], 30%. The pest or weed control at 125 g/ha in data set [7] came to 50%; with Lolium perenne (LOLPE) [8], 30%; in data set [9], 100%; with Setaria faberi (SETFA) [10], 80%; in the data set on Avena fatua (AVEFA) [11] it was 70%; in data set [12] it was 100%.
Turning to `CCc1ccc(-c2ccc(Cl)cc2)cc1C1=C(O)C2CCCC(C1=O)C2=O` (stereo not shown) [Compound B-53], the melting point amounted to 79.5 °C.
Regarding `CCc1ccc(-c2ccc(Cl)cc2)cc1C1=C(O)C(C)(C)S(=O)(=O)C(C)(C)C1=O` [Compound C-3], the pest or weed control at 250 g/ha in [1] stood at 60%; with Lolium perenne (LOLPE) [2] it was 10%; in data set [3], 70%; in the data set with Setaria faberi (SETFA) [4], 60%; in the data set on Avena fatua (AVEFA) [5], 80%; in data set [6], 90%. Also, the pest or weed control at 125 g/ha is 70% in [7]; 50% with Lolium perenne (LOLPE) [8]; 100% in data set [9]; 90% in the data set with Setaria faberi (SETFA) [10]; 80% in the data set with Avena fatua (AVEFA) [11]; 100% in data set [12].
Take `CCc1ccc(-c2ccc(Cl)cc2)cc1C1=C(O)C(C)(C)C(=O)C(C)(C)C1=O` [Compound B-1]: the pest or weed control at 500 g/ha was determined as 40% in data set [1]; 60% with Lolium perenne (LOLPE) [2]; 100% in data set [3]; 100% with Setaria faberi (SETFA) [4]; 60% with Avena fatua (AVEFA) [5]; 100% in [6]. In addition, the pest or weed control at 125 g/ha was determined as 30% in [7]; 80% in the data set with Lolium perenne (LOLPE) [8]; 100% in data set [9]; 90% with Setaria faberi (SETFA) [10]; 30% with Avena fatua (AVEFA) [11]; 100% in data set [12].
Consider `CCc1ccc(-c2ccc(Cl)cc2)cc1C1=C(O)C2(CCCC2)OCC1=O` [Compound A-36], for which the pest or weed control at 250 g/ha in data set [1] was 60%; with Lolium perenne (LOLPE) [2], 80%; in data set [3], 100%; in the data set on Setaria faberi (SETFA) [4], 90%; with Avena fatua (AVEFA) [5], 60%; in data set [6], 100%. For the same compound, the pest or weed control at 125 g/ha in data set [7] was determined as 40%; with Lolium perenne (LOLPE) [8], 70%; in data set [9], 70%; with Setaria faberi (SETFA) [10], 60%; in the data set on Avena fatua (AVEFA) [11], 0%; in data set [12], 70%.
